System: Eschericia coli strain ATCC25922
Assay: standard microdilution assay to determine minimum inhibitory concentrations (MICs)
Assay type: cell-based
Conditions: Escherichia coli, ATCC25922, Eschericia coli strain ATCC25922, standard microdilution assay; read-out: E. coli ATCC25922 MIC
Summary of the method: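 Broth microdilution per CLSI protocols, typically 100 µL final volume, against E. coli ATCC25922. MIC values scored as +/− against a cutoff of 16 micrograms/ml.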

Structure (SMILES) | MIC [µg/mL]
N=C(N)NCCCNCc1ccc(-c2c[nH]c(NC(=O)NCCCc3cc(F)c(F)cc3F)nc2=O)cc1F [Compound 582] | > 16
NCCCNCc1c(F)cc(-c2c[nH]c(NC(=O)Nc3ccccc3OC(F)(F)F)nc2=O)cc1F [Compound 285] | > 16
NCCCN(Cc1ccc(-c2c[nH]c(NC(=O)Nc3cc(F)c(F)cc3F)nc2=O)cc1)CC1CC1 [Compound 344] | < 16
CN(C(=O)C[C@H](CCCNC(=N)N)NC(=O)CCNC(=N)N)C1CNC(NC(N)=O)=NC1=O (some centres unmarked) [Compound 107] | > 16
NCCCN1CCN(C(=O)Cc2c[nH]c(NC(=O)Nc3cccc(Cl)c3Cl)nc2=O)CC1 [Compound 408] | > 16
N=C(N)NCCC[C@@H](CCCn1ccc(NC(=O)Nc2cc(F)c(F)cc2F)nc1=O)NCCCN [Compound 164] | > 16
Cc1nc(-c2cccc(NC(=O)Nc3ccn(CCC[C@H](CCCNC(=N)N)NCCCN)c(=O)n3)c2)cs1 [Compound 166] | > 16
NCCCN(CCc1ccncc1)Cc1ccc(-c2c[nH]c(NC(=O)Nc3cc(F)c(F)cc3F)nc2=O)cc1 [Compound 354] | > 16

The remaining lines, values ahead:

MIC [µg/mL] | Structure (SMILES)
< 16 | N=C(N)NCCCNCc1ccc(-c2c[nH]c(NC(=O)Nc3cccc(Cl)c3F)nc2=O)cn1 [Compound 593]
> 16 | N#Cc1cccc(NC(=O)Nc2nc(=O)c(-c3ccc(CNCCCN)c(F)c3)c[nH]2)c1 [Compound 486]
> 16 | N=C(N)NCCCNCc1ccc(-c2c[nH]c(NC(=O)Nc3cc(F)c(F)cc3F)nc2=O)cn1 [Compound 585]
< 16 | NCCCNCc1ccc(-c2c[nH]c(NC(=O)Nc3cccc(Cl)c3Cl)nc2=O)c(F)c1 [Compound 433]
> 16 | N=C(N)NCCCCN1CCC(c2c[nH]c(NC(=O)Nc3cccc(Cl)c3F)nc2=O)CC1 [Compound 547]
> 16 | N=C(N)NCCCNCc1ccc(-c2c[nH]c(NC(=O)NC3CN(S(=O)(=O)c4cc(F)cc(F)c4F)C3)nc2=O)cc1 [Compound 779]

Reference: patent US9845297B2, “Antimicrobial compounds and methods of making and using the same” (Melinta Therapeutics, Inc., priority 2009, dated 2017)
